Laboratory results reported in paper PMC10277484, “Bioactivity and nutritional quality of nutgall (Rhus semialata Murray), an underutilized fruit of Manipur” (Frontiers in Nutrition, 2023).
One block for each compound: values may come before it.

Legend:
Salmonella typhi = assay: Kirby-Bauer disk diffusion antibacterial assay; format: cell-based; conditions: Salmonella enterica, 24 h, read-out: Inhibition zone, Salmonella typhi
Staphylococcus aureus = assay: Kirby-Bauer disk diffusion antibacterial assay; format: cell-based; conditions: 6 mm disc, extract 0.5 mg, chloramphenicol 0.025 mg, 24 h 37°C
Procedure: (§1) The Kirby-Bauer disk diffusion method ([31]) was used for the evaluation of the antibacterial activity of MExt. Four test organisms, viz.; Salmonella typhimurium (ATTC13311), Escherichia coli (MTCC 739), Bacillus subtilis (MTTCC 121), Staphylococcus aureus (ATCC 1026), were grown in Mueller-Hinton broth (MHB) at 37°C and 160 rpm and brought to its exponential phase. The sample was prepared by dissolving the MExt in 50% DMSO (at 25 mg/mL w/v concentration) and filtering through a (0.22 μm) syringe filter. Hundred microliter of each bacterial strain, equivalent to 0.5 McFarland turbidity were spread over sterile Mueller-Hinton agar (MHA) plate using a sterile swab. A 20 μL sample (0.5 mg) impregnated in a 6 mm sterile disc was seeded on the freshly spread MHA plates and incubated for 24 h at 37°C. Chloramphenicol 0.025 mg was used as a positive control. One reagent control containing the buffer and solvent used was also included in the experiment. The zone of inhibition was recorded using a Vernier caliper.

Escherichia coli = assay: Kirby-Bauer disk diffusion antibacterial assay; format: cell-based; conditions: 6 mm disc, extract 0.5 mg, chloramphenicol 0.025 mg, 24 h 37°C, read-out: Inhibition zone, Eschericia coli
Procedure: as §1

Bacillus subtilis = assay: Kirby-Bauer disk diffusion antibacterial assay; format: cell-based; conditions: 6 mm disc, extract 0.5 mg, chloramphenicol 0.025 mg, 24 h 37°C
Procedure: as §1

[1] = test system: HeLa (human cervical cancer cell line); assay: In vitro cytotoxicity, Sulforhodamine B (SRB) assay; format: cell-based; conditions: 48 h, read-out: IC50 against HeLa cells
Procedure: The cytotoxic activity of MExt was investigated using Sulforhodamine B colorimetric (SRB) assay against HeLa (human cervical cancer cell line). The cell was maintained in a Dulbecco’s Modified Eagle Medium (DMEM). […] The monolayer cells were then fixed with 10% Trichloroacetic acid (TCA) for 1 h at […] followed by washing with water. After drying, the cell plates were stained with SRB for 30 min and then washed with 1% acetic acid. The SRB dye bound to the protein was then dissolved by adding 10 mM Tris base (pH 10.5). The SRB dye released was quantified by taking absorbance at 510 nm in Varioskan Flash Multimode Reader (Thermo Fisher Scientific, United States) ([32]).

[2] = ABTS radical scavenging assay; format: biochemical; conditions: 30 min in the dark, 734 nm
Procedure: ABTS radical scavenging activity was performed as described by Singh et al. ([26]). The reaction mixture containing 0.1 mL of extract was mixed with 1.9 mL ABTS radical ([…] = 1.0 ± 0.01) then incubated for 30 min in the dark, and the absorbance was read at 734 nm. RSA and IC50 of the extract were calculated as described above.

[3] = DPPH radical scavenging assay; format: biochemical; conditions: 30 min in the dark, 517 nm
Procedure: 0.1 mL of each of the five different concentrations of the extract was mixed with 1.9 mL DPPH reagent prepared in methanol (A517 = 1.1 + 0.01). The mixture was incubated for 30 min in the dark and then read at 517 nm. The radical scavenging activity (RSA) of each extract was calculated as follows ([26]).
RSA%=(Acontrol−Asample)/AcontrolX100%
From the RSA%, 50 inhibitory concentration (IC50) was calculated and expressed in μg/mL.

Compound: O=C(N[C@H](CO)[C@H](O)c1ccc([N+](=O)[O-])cc1)C(Cl)Cl [Chloramphenicol]
zone of inhibition at 25 µg/disc (Salmonella typhi): 30 ± 2 mm | zone of inhibition at 25 µg/disc (Staphylococcus aureus): 29 ± 1 mm | zone of inhibition at 25 µg/disc (Escherichia coli): 28 ± 2.2 mm | zone of inhibition at 25 µg/disc (Bacillus subtilis): 30.2 ± 1.6 mm

Compound: COc1cccc2c1C(=O)c1c(O)c3c(c(O)c1C2=O)C[C@@](O)(C(=O)CO)C[C@@H]3O[C@H]1C[C@H](N)[C@H](O)[C@H](C)O1 [Doxorubicin]
IC50 [1]: < 5 µg/mL

ABTS (IC50) [2]: 5.4 µg/mL | ABTS (IC50) ([2]; listed as Vitamin C): 3.00 ± 0.40 µg/mL | DPPH (IC50) [3]: 3 µg/mL | DPPH (IC50) ([3]; listed as Vitamin C): 5.40 ± 0.30 µg/mL
Compound: O=C1O[C@H]([C@@H](O)CO)C(O)=C1O [Ascorbic acid]
